Measurements as given in patent publication US20240197712A1, “TGF-BETA INHIBITION FOR IMMUNODEFICIENCY VIRUS REACTIVATION FROM LATENCY, ENHANCEMENT OF IMMUNODEFICIENCY VIRUS-SPECIFIC RESPONSES AND IMMUNODEFICIENCY VIRUS CURE” (Northwestern University, priority 2022, published 2024).

Assays:
HIV-Bal = test: In vitro HIV-1 replication in SupT1 cells and PHA-PBMC (p24 ELISA); format: cell-based; conditions: SupT1 cells and PBMC from healthy donors, different concentrations of galunisertib
Protocol: For control experiments of the impact of galunisertib on HIV infection of SupT1 cells and PBMC, SupT1 cells and PHA-activated PBMC were cultured respectively at 1 and 2 millions/ml in R10 (in presence of 20 U/ml of IL-2 for the PBMC) and infected with 50 TCID50/10^6 cells of HIV-Bal (0.01 MOI). HIV replication was monitored by p24 ELISA.

SIVmac239M2 = test: Plasma viral load, four 2-week galunisertib cycles; format: in vivo, rhesus macaques
Protocol: Rhesus macaques (n=8 main study+4 separate non-concomitant study) were infected with 300 TCID50 of the barcoded SIVmac239M2 stock intravenously and ART (Tenofovir [PMPA], Emtricitabine [FTC] and Dolutegravir [DTG]) was initiated on week 6 pi. Galunisertib treatment was initiated on week 35 p.i. Powder (MedChemExpress—MCE, NJ, USA) was dissolved in water and given orally in a treat twice daily at 20 mg/kg. 4 cycles of 2 weeks daily treatment with 2 weeks wash out period were performed. Macaques 08M156 and A6X003 were given the rhesus recombinant antibody (rhesus/human chimeric) anti-PD1 antibody [NIVOR4LALA; comprising silenced rhesus IgG4k […] constant regions and variable regions from anti-human PD-1, nivolumab; non-human primates reagents resource, NHPRR. Blood viral load was monitored biweekly before and during ART and every 3-4 days during Galunisertib treatment. Colorectal biopsies and LN FNA were collected before and after galunisertib treatment. ART was terminated 3 weeks after the last galunisertib dose and euthanasia and necropsy to harvest tissues were performed at week 58 post infection, tissues samples were flash frozen, fixed in OCT or Z-fix.
Blood was collected in EDTA tubes and plasma was separated by density gradient centrifugation and used for the determination of plasma VL by SIVgag qRT-PCR at NIRC or at Leidos (Quantitative Molecular Diagnostics Core, AIDS and Cancer Virus Program Frederick National Laboratory). Tissue VL from snap frozen PBMC pellets, colorectal biopsies and LN FNA were performed as described in (77). SIV-TILDA was performed on freshly stored PBMC before cycle 1 and at the end of cycle 4 of galunisertib by Accelevir, Baltimore, MD.

SIV-env = test: ImmunoPET/CT with 64Cu-DOTA-F(ab')2 p7D3 anti SIV-env probe, 1-2 weeks galunisertib; format: in vivo, rhesus macaques
Protocol: PET/CT imaging with a 64Cu-DOTA-F(ab′)2 p7D3 anti SIV-env probe were performed before Galunisertib treatment, after 7 days in all macaques and after 14 days in the macaques that were treated for 14 days. Briefly, a solution of 64Cu was incubated with DOTA-F(ab′)2 p7D3 antibody reconstituted with 50 μL of IM NH40Ac, pH of 5.5 and incubated for 1 hour at 37° C.; then purified by ultrafiltration in a desalting spin column (10K MWCO, Thermo Fisher) and finally eluted with sterile saline prior to injection. The labeled probe was injected IV via catheters, 24 h before PET-CT scanning. For taking PET/CT scans, the macaques were sedated with ketamine HCL (10 mg/kg), and/or telazol (4-8 mg/kg) via intramuscular and supplemented with ketamine (5 mg/Kg) as needed to perform the procedure. The macaque's body was immobilized in dorsal recumbency on the scanner table and PET/CT scans were acquired using a Philips Gemini TF64 PET/CT scanner. […]
PET Image analysis was performed using the MIM software. PETCT fusions were generated scaled according to calculated Standardized Uptake Values. […]
Regions of interest (ROI) were isolated using a combination of the Region Grow function and manual contouring on a representative scan. […] The signals of the whole body as well as within these ROI were quantified, and Max, Mean, and Total SUVs were calculated for further analyses. […]

U1 cells = test: DC-driven HIV reactivation from U1 cells (moDC co-culture); format: cell-based; conditions: moDCs treated with TGF-β1 10 ng/ml for last 2 days, with or without galunisertib; 18 hrs co-culture
Protocol: CD14^+ cells were isolated from PBMC using the Miltenyi CD14^+ beads. Monocyte-derived DCs (moDCs) were obtained from CD14+ cells cultured in GM-CSF and IL-4 as previously described (55). At day 4 of moDCs differentiation, TGF-β1 (10 ng/ml R&D systems) was added to the moDCs to generate the TGF-β-DCs (or both TGF-β1 and galunisertib). At day 6, 2 days after TGF-1 addition, moDCs were phenotyped (in 3 donors; See Table 2 for antibodies list) and co-cultured with eFluor670 (eBioscience)-labelled U1 at 3:1 U1:DC ratio (5 donors). After 18 hrs of co-culture, cells were stained for p24 intracellularly as described above.

Structure (SMILES): Cc1cccc(-c2nn3c(c2-c2ccnc4ccc(C(N)=O)cc24)CCC3)n1 [galunisertib, Galunisertib]
- HIV-1 growth curves (HIV-Bal): no impact
- macaques with increased pVL after start of treatment (SIVmac239M2; 20 mg/Kg twice daily orally, 4 cycles): 7 out of 8
- increases in pVL in fully suppressed macaques (SIVmac239M2; 08M171, A8R095 and A8L057): > 102 copies/ml
- viral rebound after ART interruption (SIVmac239M2; ART discontinued 3 weeks after last dose, 6 weeks follow-up): One macaque did not rebound
- macaques with viral blips above 100 copies/ml in blood (SIVmac239M2; Example 5, 7 macaques, 20 mg/kg twice per day, four 2-weeks cycles): 5 out of the 7
- pVL peaks during treatment (SIVmac239M2; macaques with several peaks): up to 103 copies/ml
- pVL blips in A8T010 and A8R095 after treatment initiation (SIVmac239M2; undetectable for over 5 weeks before): up to 102 copies/ml
- macaques with clear extensive viral reactivation in the gut (PET signal) (SIV-env; day 7 or 14 of treatment vs baseline): 3 of the 7
- macaques with increased SUVtot in PET/CT images in gut and lymph nodes (SIV-env; oral galunisertib, aviremic long-term ART-treated macaques): 5 out of 7
- frequency of p24-gag+ U1 cells in cocultures with TGF-β1-treated DCs versus untreated DCs (U1 cells): blocked
